# From US20190054054A1, “Methods reducing or preventing oxidation of high density lipoprotein (HDL)” (Amarin Pharmaceuticals Ireland Limited, priority 2017, published 2019)
# Legend:
# [1] = Glucose-induced membrane lipid peroxidation (LOOH, CHOD-iodide assay) in DLPC/cholesterol vesicles (Examples 4 and 5); assay type: biochemical; conditions: each at 1.0 μM; glucose 200 mg/dL; 96 hours
# Protocol: Vitamin E (α-tocopherol) was also purchased from Sigma-Aldrich and prepared in ethanol at 1.0 mM (e=[…] at 294 nm) just prior to experimental use. […] All test compounds were further diluted in ethanol or aqueous buffer as needed. Glucose was prepared in saline buffer (0.5 mM HEPES, 154 mM NaCl, pH 7.3) at 11.0 mM (200 mg/dL). CHOD-iodide color reagent (stock) was prepared, with slight modification, as described by from El-Saadani et al. (J. […] Samples were shell-dried under nitrogen gas and placed under vacuum for 1 h to remove residual solvent. […] Lipid suspensions were then vortexed for 3 min at ambient temperature to form MLVs. All MLV samples were subjected to time-dependent autoxidation by incubating at 37° C. in an uncovered, shaking water bath. This method allows lipid peroxidation to occur gradually without requiring the use of exogenous initiators. Small aliquots (5-100 μL) of each sample were removed, immediately following MLV preparation (0 hour) and after exposing samples to oxidative conditions for 72 or 96 hour, and combined with 1.0 mL of activated CHOD-iodide color reagent. Aliquot volume was reduced with each successive time point to ensure that spectrophotometric readings were within the optimal adsorption range. Test samples were covered and incubated in darkness at room temperature for at least 4 hr. Sample absorbances were then measured against a CHOD blank at 365 nm using a Beckman DU-640 spectrophotometer. The CHOD colorimetric assay is based on the oxidation of iodide (I^−) by lipid hydroperoxide (LOOH) to form triiodide (I3^−), the quantity of which is directly proportional to the amount of LOOH present in the lipid sample. The molar absorptivity (ε) of I3^− is 2.46×10^4 M^−1 cm^−1 at 365 nm. An experiment was conducted to compare the ability of EPA to prevent lipid hydroperoxide formation in model membranes treated with glucose to two other 20-carbon fatty acids: eicosanoic acid (“EA,” also referred to as arachidic acid, C20:0) and eicosatrienoic acid (“ETE,” C20:3, n-3). All MLV samples were subjected to time-dependent autoxidation by incubating at 37° C. in an uncovered, shaking water bath. This method allows lipid peroxidation to occur gradually without requiring the use of exogenous initiators. Small aliquots (5-100 μL) of each sample were removed, immediately following MLV preparation (0 hr) and after exposing samples to oxidative conditions for 72 or 96 hr, and combined with 1.0 mL of activated CHOD-iodide color reagent. Aliquot volume was reduced with each successive time point to ensure that spectrophotometric readings were within the optimal adsorption range. Test samples were covered and incubated in darkness at room temperature for at least 4 hr. Sample absorbances were then measured against a CHOD blank at 365 nm using a Beckman DU-640 spectrophotometer. The CHOD colorimetric assay is based on the oxidation of iodide (I^−) by lipid hydroperoxide (LOOH) to form triiodide (I3^−), the quantity of which is directly proportional to the amount of LOOH present in the lipid sample. The molar absorptivity (ε) of I3^− is 2.46×10^4 M^−1 cm^−1 at 365 nm.
# human sdLDL = assay: Copper-induced sdLDL oxidation, TBARS (Example 7); assay type: biochemical
# Protocol: (§1) An experiment to study the antioxidant effect of EPA in LDL and small dense […] performed. […] Fenofibrate, gemfibrozil, and niacin were purchased from Sigma-Aldrich. […] Vitamin E was also incubated with sample aliquots as a positive control.
# human LDL = assay: Copper-induced oxidation of unfractionated LDL, TBARS (Example 7); assay type: biochemical
# Protocol: as §1
# [2] = system: rat renal glomerular endothelial cells; assay: NO and ONOO^− release ex vivo from rat glomerular endothelial cells exposed to oxLDL and high glucose (Example 13); assay type: cell-based; conditions: oxLDL 11 mg/dL and glucose 300 mg/dL; treatment 1 hr at 10.0 μM; versus vehicle
# Protocol: Healthy male Wistar Kyoto (WKY) rats, aged 7-9 weeks and weighing 250±20 g, were obtained from inbred colonies (National Institutes of Health, Bethesda, Md.). Animals were housed in a controlled environment that provided food and water ad libitum prior to the study. […] Animals were sacrificed and tissue samples obtained immediately for experimentation. All procedures were conducted in accordance with standard Institutional Animal Care and Use Committee guidelines and conformed to the Guide for the Care and Use of Laboratory Animals published by the US National Institutes of Health.
# EPA and DHA were purchased from Sigma-Aldrich (St. Louis, Mo.) and solubilized in ethanol to 1.0 mM under nitrogen atmosphere. […] The calcium ionophore (Cal), A23187, was purchased from Sigma-Aldrich and prepared in aqueous buffer to 1.0 mM. All test compounds were further diluted in ethanol or aqueous buffer as needed.
# Venous blood from healthy normolipidemic volunteers was collected into Na-EDTA (1 mg/mL blood) vacuum tubes after a 12-hour fast. […] The LDL fraction was dialyzed for 96 hours against PBS containing 0.3 mM EDTA and stored at 4° C. until experimental use.
# LDL was oxidized according to the methods of Huber et al. 16 Briefly, the purified LDL fraction was dialyzed against Tris/NaCl Buffer (50 mM Tris in 0.15 M NaCl, pH 8.0) to remove EDTA. Additional buffer was added to adjust the protein concentration to 30 mg/mL. LDL oxidation was initiated with 20 μM CuSO4 and monitored spectrophotometrically (234 nm) over a period of 24 hours until complete. The oxLDL was then dialyzed at 4° C. with 4 L Tris buffer, filtered with a 0.22 µm filter, and stored under nitrogen at 4° C.
# Immediately after sacrificing the rats, kidneys were removed, cut into […] sections and transferred to a separate organ chamber containing Dulbecco's phosphate buffered saline ([…]) and […] glucose at pH 7.4.
# Concurrent measurements of NO and ONOO^− were performed on intact glomerular (cortical zone) endothelial cells using tandem electrochemical nanosensors, as previously described (FIG. 45).
# The NO/ONOO^− nanosensor was positioned near the surface of the endothelial cells using a computer-controlled M3301 micromanipulator (x-y-z resolution of 0.2 μm) and microscope (both from World Precision Instruments, Berlin, Germany) fitted with a CD camera. Each analyte was measured from amperograms and standard calibration curves collected under maximum current. […] After establishing a background current, maximal NO and ONOO^− release was induced by injecting Cal into the organ chamber using a nanoinjector (World Precision Instruments, Berlin Germany). Changes in current (proportional to the molar concentrations of NO or ONOO^− released) were monitored continuously immediately following Cal stimulation.
# Data are presented as mean+standard deviation (SD) for (N) separate samples or experiments. Differences between groups were analyzed using the unpaired, two-tailed Student's t-test (for comparisons between only two groups) or ANOVA followed by Student-Newman-Keuls multiple comparisons post hoc analysis (for comparisons between three or more groups). Only differences with probability values less than 0.05 were considered significant.
# [3] = 10 mg, administered for 12 weeks; cited from earlier work
# [4] = 80 mg for 16 weeks; 2,341 patients; cited from earlier work
# HMG-CoA reductase = molecular target: T1, HMG-CoA reductase (Homo sapiens, UniProt P04035); conditions: metabolized by hepatic cytochrome P450; cited from earlier work
# T1 sequence (P04035 1-888): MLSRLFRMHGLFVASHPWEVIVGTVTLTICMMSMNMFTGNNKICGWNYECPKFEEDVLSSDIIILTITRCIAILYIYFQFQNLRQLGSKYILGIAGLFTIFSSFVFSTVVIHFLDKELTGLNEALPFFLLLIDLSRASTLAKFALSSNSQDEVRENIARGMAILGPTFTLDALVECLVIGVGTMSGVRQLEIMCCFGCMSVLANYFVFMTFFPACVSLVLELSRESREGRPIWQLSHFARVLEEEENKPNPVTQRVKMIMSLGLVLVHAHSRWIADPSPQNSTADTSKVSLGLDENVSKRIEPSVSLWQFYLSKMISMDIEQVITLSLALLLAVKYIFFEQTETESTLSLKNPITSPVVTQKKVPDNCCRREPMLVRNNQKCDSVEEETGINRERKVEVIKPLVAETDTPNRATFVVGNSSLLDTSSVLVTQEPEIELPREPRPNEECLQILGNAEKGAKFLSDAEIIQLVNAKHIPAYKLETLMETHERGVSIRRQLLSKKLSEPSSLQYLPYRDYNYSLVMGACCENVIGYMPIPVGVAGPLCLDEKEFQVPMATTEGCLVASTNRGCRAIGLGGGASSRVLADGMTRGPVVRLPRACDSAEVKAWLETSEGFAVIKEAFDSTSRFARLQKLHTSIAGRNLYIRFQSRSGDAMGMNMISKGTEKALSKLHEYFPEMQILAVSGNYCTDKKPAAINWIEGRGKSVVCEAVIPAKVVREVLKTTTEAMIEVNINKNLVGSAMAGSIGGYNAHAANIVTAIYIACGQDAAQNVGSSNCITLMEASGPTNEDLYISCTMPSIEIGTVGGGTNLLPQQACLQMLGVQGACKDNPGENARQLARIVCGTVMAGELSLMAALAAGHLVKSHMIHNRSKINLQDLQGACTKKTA
Compound,"antioxidant effect, separate treatments [1]","inhibition of sdLDL oxidation as compared to vehicle (human sdLDL; 1.0 μM (each agent), 1 hr)","inhibition of sdLDL oxidation as compared to vehicle (human sdLDL; ATM 0.5 μM, alone or in combination with EPA 1.0 μM, 1 hr)","inhibition of sdLDL oxidation (human sdLDL; ATM at the highest dose, 1 hr)","effect on unfractionated LDL oxidation, dose dependence (human LDL; 1 hour)",increase in NO release [2],reduction of ONOO^− release [2],"antioxidant activity, separately (human sdLDL; 10.0 μM, sdLDL)","inhibition of sdLDL oxidation as compared to vehicle (human sdLDL; each agent at 10.0 μM, 1 hour (FIG. 17))","antioxidant activity, separately (human LDL; 10.0 μM, unfractionated LDL)","circulating levels of chlorotyrosine, nitrotyrosine, and dityrosine [3]",levels of oxidized lipids associated with all apoB100-containing lipid particles [4],share of circulating HMG-CoA reductase inhibitory activity accounted for by the active metabolites (HMG-CoA reductase)
"CC(C)c1c(C(=O)Nc2ccccc2O)c(-c2ccccc2)c(-c2ccc(F)cc2)n1CC[C@@H](O)C[C@@H](O)CC(=O)O [ATM, Atorvastatin ortho-(o-) hydroxy (active) metabolite]",separate and potent antioxidant effects,18±5%,5±5%,90±2%,significant and dose-dependent inhibition of unfractionated LDL oxidation beginning at 1.0 μM,205%,25%,–,–,–,–,–,–
CC(C)c1c(C(=O)Nc2ccccc2)c(-c2ccccc2)c(-c2ccc(F)cc2)n1CC[C@@H](O)C[C@@H](O)CC(=O)O [atorvastatin],–,–,–,–,–,–,–,did not have any significant antioxidant activity,0.1±7%,did not have any significant antioxidant activity,"significantly reduce circulating levels of chlorotyrosine, nitrotyrosine, and dityrosine",significant reduction in levels of oxidized lipids,approximately 70%
